Experiments:
HBV DNA replication = test: Inhibition experiment on HBV virus replication (HepG 2,2,15 cells, supernatant HBV DNA by qPCR); assay type: cell-based; settings: Hepatitis B virus, HepG2.2.15, 10 days treatment, supernatant HBV DNA on day 11
Text: (§1) The chromosomal integration of HepG2,2,15 cells (SELLS, PNAS, 1987 and SELLS, JV, 1988) has a complete HBV genome and stably expresses viral RNA and viral proteins. HepG2,2,15 cells are capable of secreting mature hepatitis B virus particles and HBsAg into the culture medium. Virus particles DNA and HBsAg secreted by HepG 2,2,15 cells can be quantified by qPCR and ELISA, and the effects of compounds on viral replication and HBsAg secretion can be detected.
(§2) HepG 2,2,15 cells were inoculated with 8,000 per cell to 96-well cell culture plates in duplicate, and were cultured for 3 days until the cells grew to full-hole. Cells were treated with 4-fold serial dilutions of compounds for 10 days, and were given once every other day. The final concentration of DMSO in all pores was 0.5% and DMSO was used as a drug-free control. The supernatant was collected for quantitative detection of HBV DNA on day 11.
Viral genomic DNA was detected by qPCR method, and HBV primers were as follows: […]
The SYBR Premix Ex Taq D-Takara DRR081S kit was used, and 1 μL of cell culture supernatant was used as a template. A standard curve was made using a plasmid containing the HBV genome, and the viral copy number was calculated using the standard curve. Concentration-virus copy number was processed using Graphpad Prism 5 software, and IC50 of compounds inhibiting virus replication was calculated by four-parameter nonlinear regression model.

HBsAg secretion = test: Inhibition experiment on HBsAg secretion (HepG 2,2,15 cells, ELISA); assay type: cell-based; settings: Hepatitis B virus, HepG2.2.15, read-out: HBsAg IC50
Text: as §1
as §2, with “HBsAg” for “HBV DNA”
The level of HBsAg secreted by the cells after treatment of the compound was detected by ELISA method, and the method used a hepatitis B surface antigen diagnostic kit (Shanghai Kehua Biotech Co., Ltd. S10910113). 25 μL of the supernatant to be assayed (PBS was diluted to 75 μL) was added to per well in the ELISA plate, and the kit positive control and negative control were set. The ELIS A plate was blocked with a cover paper and incubated at 37° C. for 60 minutes. The ELISA plate was taken out, and the cover paper was teared off, and 50 μL of enzyme conjugate was added to each well. The ELISA plate was oscillated on the shaker for 10 seconds, blocked with a cover paper and incubated at 37° C. for 30 minutes. The ELISA plate was taken out, the cover paper was teared off, and the ELISA plate was washed 5 times: each time the liquid in the hole was discarded, and the washing liquid was filled into the holes, left to stand for 60 seconds, dried, and the liquid residue was patted to dry on the absorbent paper. A freshly prepared mixture of Developer A and Developer B was added to all wells immediately after washing: 100 μL per well. The ELISA plate was oscillated on the shaker for 10 seconds, blocked with a cover paper and incubated at 37° C. for 30 minutes. 50 μL of stop solution was added to all wells. Absorbance was read on the Envision plate reader at a wavelength of 450 nm.
Concentration-HBsAg OD450 was processed using Graphpad Prism 5 software, and IC50 of compounds inhibiting against HBsAg secretion was calculated by four-parameter nonlinear regression model.

[1] = PK test experiments in beagle dogs; assay type: in vivo
Protocol: The PK test in vivo of the compound of the present invention in beagle dogs (body weight 10-12 kg, male, age 10-12 months, 3 per group with oral administration, 3 per group with intravenous injection) The beagle dog was […] After administration, venous blood was collected at time points (0.083, 0.25, 0.5, 1, 2, 4, 6, 8 and 24 hours) and collected in an anticoagulation tube to which EDTA-K2 was added. Plasma samples were extracted by liquid-liquid extraction and quantitatively analyzed by multiple reaction ion monitoring (MRM) on a triple quadrupole tandem mass spectrometer. Pharmacokinetic parameters were calculated using a noncompartmental method by WinNonLin 6.3 software.

[2] = PK test experiments in SD rats; assay type: in vivo; design: VSS: unit not given here; settings: for AUC(0-inf) / AUC(0-t) / Cmax / clearance: male, rat, plasma
Protocol: The PK test in vivo of the compound of the present invention in SD rats (body weight 200-250 g, male, age 2-3 months, 3 per group with oral administration, 3 per group with intravenous injection) The SD rat was administered orally with 2.5 mg/kg or 5 mg/kg of the compound tested or intravenously injected with 0.5 mg/kg or 1 mg/kg of the compound tested. After administration, venous blood was collected at time points (0.083, 0.25, 0.5, 1, 2, 5, 7 and 24 hours) and collected in an anticoagulation tube to which EDTA-K2 was added. Plasma samples were extracted by liquid-liquid extraction and quantitatively analyzed by multiple reaction ion monitoring (MRM) on a triple quadrupole tandem mass spectrometer. Pharmacokinetic parameters were calculated using a noncompartmental method by WinNonLin 6.3 software.

[3] = male, dog, plasma, IV, 0.5 mg/kg
[4] = male, dog, plasma, PO, 2.5 mg/kg

Compound | IC50 (HBV DNA replication) [nM] | IC50 (HBsAg secretion) [nM] | VSS ([2]; IV, 1 mg/kg) | F ([2]; PO, 5 mg/kg) [%] | AUC(0-inf) ([2]; IV, 1 mg/kg) [ng·h/mL] | AUC(0-t) ([2]; IV, 1 mg/kg) [ng·h/mL] | Cmax ([2]; IV, 1 mg/kg) [ng/mL] | clearance ([2]; IV, 1 mg/kg) [mL/min/kg] | AUC(0-inf) ([2]; PO, 5 mg/kg) [ng·h/mL] | AUC(0-t) ([2]; PO, 5 mg/kg) [ng·h/mL] | Cmax ([2]; PO, 5 mg/kg) [ng/mL] | other results
CC(C)N1Cc2cc(-c3cnn(C(F)F)c3)c3c(c2-c2cc(=O)c(C(=O)O)cn21)CCO3 [Example 43, 4-(1-(Difluoromethyl)-1H-pyrazol-4-yl)-7-isopropyl-11-oxo-2,6,7,11-tetrahydro-1H-furo[2,3-h]pyrido[2,1-a]phthalazine-10-carboxylic Acid] | 1.85 | 0.98 | – | – | – | – | – | – | – | – | – | VSS ([1]; IV, 0.5 mg/kg): 0.48 kg⁻¹; F ([1]; PO, 2.5 mg/kg): 100.7%; AUC(0-inf) [1, 3]: 9990 ng·h/mL; AUC(0-t) [1, 3]: 9030 ng·h/mL; Cmax [1, 3]: 1080 ng/mL; clearance [1, 3]: 0.83 mL/min/kg; AUC(0-inf) [1, 4]: 49300 ng·h/mL; AUC(0-t) [1, 4]: 45500 ng·h/mL; Cmax [1, 4]: 5770 ng/mL
COCCCOc1cc2c(c3c1OCC3)-c1cc(=O)c(C(=O)O)cn1C(C(C)C)C2 (stereo not shown) [Example 2, 7-Isopropyl-4-(3-methoxypropoxy)-11-oxo-2,6,7,11-tetrahydro-1H-furo[2,3-h]pyrido[2,1-a]isoquinoline-10-carboxylic Acid] | 1.21 | 1.45 | 1.8 | 174.5 | 1330 | 1210 | 738 | 12.6 | 10600 | 10600 | 1860 | –
CC(C)N1Cc2cc(-c3cnn(C(C)C)c3)c3c(c2-c2cc(=O)c(C(=O)O)cn21)CCO3 [Example 17, 7-Isopropyl-4-(1-isopropyl-11-pyrazol-4-yl)-11-oxo-2,6,7,11-tetrahydro-1H-furo[2,3-h]pyrido[2,1-a]phthalazine-10-carboxylic Acid] | 1.51 | 3.27 | 1.01 | 130.6 | 1640 | 1610 | 932 | 10.1 | 10700 | 10700 | 1620 | –
CC(C)C1Cc2cc(-c3cnn(C(C)C)c3)c3c(c2-c2cc(=O)c(C(=O)O)cn21)CCO3 (stereo not shown) [Example 9, 7-Isopropyl-4-(1-isopropyl-1H-pyrazol-4-yl)-11-oxo-2,6,7,11-tetrahydro-1H-furo[2,3-h]pyrido[2,1-a]isoquinoline-10-carboxylic Acid] | 1.1 | 2.83 | 2.2 | 94 | 1190 | 1180 | 641 | 14 | 5590 | 5560 | 1630 | –
CC(C)C1Cc2cc(OCC3CCOCC3)c3c(c2-c2cc(=O)c(C(=O)O)cn21)CCO3 (stereo not shown) [Example 5, 7-Isopropyl-11-oxo-4-((tetrahydro-2H-pyran-4-yl)methoxy)-2,6,7,11-tetrahydro-1H-furo[2,3-h]pyrido[2,1-a]isoquinoline-10-carboxylic Acid] | 3.4 | 2.35 | – | – | – | – | – | – | – | – | – | –
CC(C)C1Cc2cc(-c3cccs3)c3c(c2-c2cc(=O)c(C(=O)O)cn21)CCO3 (stereo not shown) [Example 11, 7-Isopropyl-11-oxo-4-(thiophen-2-yl)-2,6,7,11-tetrahydro-1H-furo[2,3-h]pyrido[2,1-a]isoquinoline-10-carboxylic Acid] | 0.78 | 0.92 | – | – | – | – | – | – | – | – | – | –
COc1ccc(-c2cc3c(c4c2OCC4)-c2cc(=O)c(C(=O)O)cn2C(C(C)C)C3)cc1 (stereo not shown) [Example 26, 7-Isopropyl-4-(4-methoxyphenyl)-11-oxo-2,6,7,11-tetrahydro-1H-furo[2,3-h]pyrido[2,1-a]isoquinoline-10-carboxylic Acid] | 1.09 | 1.33 | – | – | – | – | – | – | – | – | – | –
CC(C)C1Cc2cc(-c3cnn(C4CCC4)c3)c3c(c2-c2cc(=O)c(C(=O)O)cn21)CCO3 (stereo not shown) [Example 33, 4-(1-Cyclobutyl-1H-pyrazol-4-yl)-7-isopropyl-11-oxo-2,6,7,11-tetrahydro-1H-furo[2,3-h]pyrido[2,1-a]isoquinoline-10-carboxylic Acid] | 1.23 | 1.36 | – | – | – | – | – | – | – | – | – | –
CC(C)C1Cc2cc(OCCC3CC3)c3c(c2-c2cc(=O)c(C(=O)O)cn21)CCO3 (stereo not shown) [Example 3, 4-(2-Cyclopropylethoxy)-7-isopropyl-11-oxo-2,6,7,11-tetrahydro-1H-furo[2,3-h]pyrido[2,1-a]isoquinoline-10-carboxylic Acid] | 1.6 | 1.4 | 1.5 | 167.4 | 1760 | 1630 | 744 | 9.45 | 14800 | 14700 | 1810 | –
CC1(C)CCC2c3cc(OCCC4CC4)c4c(c3-c3cc(=O)c(C(=O)O)cn3N21)CCO4 (stereo not shown) [Example 13, 5-(2-Cyclopropylethoxy)-1,1-dimethyl-10-oxo-2,3,3a,7,8,10-hexahydro-1H-furo[3,2-f]pyrido[1,2-c]pyrrolo[2,1-a]phthalazine-11-carboxylic Acid] | < 0.24 | 0.34 | 1.4 | 129 | 2860 | 2830 | 1000 | 5.84 | 18400 | 18300 | 1700 | –
COc1cccc(-c2cc3c(c4c2OCC4)-c2cc(=O)c(C(=O)O)cn2C(C(C)C)C3)c1 (stereo not shown) [Example 27, 7-Isopropyl-4-(3-methoxyphenyl)-11-oxo-2,6,7,11-tetrahydro-1H-furo[2,3-h]pyrido[2,1-a]isoquinoline-10-carboxylic Acid] | 2.54 | 4.65 | – | – | – | – | – | – | – | – | – | –
CC(C)C1Cc2cc(-c3ccc(-c4ccccc4)cc3)c3c(c2-c2cc(=O)c(C(=O)O)cn21)CCO3 (stereo not shown) [Example 25, 4-([1,1′-Biphenyl]-4-yl)-7-isopropyl-11-oxo-2,6,7,11-tetrahydro-1H-furo[2,3-h]pyrido[2,1-a]isoquinoline-10-carboxylic Acid] | 0.72 | 1.4 | – | – | – | – | – | – | – | – | – | –
COCCCOc1cc2c(c3c1OCC3)-c1cc(=O)c(C(=O)O)cn1N1C2CCC1(C)C (stereo not shown) [Example 12, 5-(3-Methoxypropoxy)-1,1-dimethyl-10-oxo-2,3,3a,7,8,10-hexahydro-1H-furo [3,2-f]pyrido[1,2-c]pyrrolo[2,1-a]phthalazine-11-carboxylic Acid] | < 0.24 | 0.81 | – | – | – | – | – | – | – | – | – | –
CC(C)C1Cc2cc(OCC3CC3)c3c(c2-c2cc(=O)c(C(=O)O)cn21)CCO3 (stereo not shown) [Example 23, 4-(Cyclopropylmethoxy)-7-isopropyl-11-oxo-2,6,7,11-tetrahydro-11-furo [2,3-h]pyrido[2,1-a]isoquinoline-10-carboxylic Acid] | 3.36 | 1.14 | – | – | – | – | – | – | – | – | – | –
